Data on 29 compounds can be found in patent US9527832B2, “Substituted condensed pyrimidine compounds” (GRÜNENTHAL GMBH, priority 2013, dated 2016).

The target of this assay is T1, human PDE4B1 (Homo sapiens, UniProt Q07343).
T1 construct: host or cells: Sf9 cells
The assay is described as follows: cAMP HTRF assay to determine the activity of hPDE4B1. Type of assay: biochemical. The conditions noted are these: for inhibition at 1 µM / Inhibition at 1 μM test concentration [%]: Percentage inhibition of PDE4B at 1 μM test concentration; for IC50: dose response measurements with eight concentrations, reported as ranges, read-out: IC50. The method in brief:
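Sf9-expressed recombinant human PDE4B1 (4.8 U) in Tris-HCl/MgCl2/DTT/Tween 20 buffer pH 7.8, with cAMP at 40 nM final, 30 min at room temperature. Reaction stopped with IBMX 1 mM; remaining cAMP detected by HTRF (665/620 nm ratio). IC50 from eight-point dose-response, n=2.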

T1 sequence (Q07343 whole entry): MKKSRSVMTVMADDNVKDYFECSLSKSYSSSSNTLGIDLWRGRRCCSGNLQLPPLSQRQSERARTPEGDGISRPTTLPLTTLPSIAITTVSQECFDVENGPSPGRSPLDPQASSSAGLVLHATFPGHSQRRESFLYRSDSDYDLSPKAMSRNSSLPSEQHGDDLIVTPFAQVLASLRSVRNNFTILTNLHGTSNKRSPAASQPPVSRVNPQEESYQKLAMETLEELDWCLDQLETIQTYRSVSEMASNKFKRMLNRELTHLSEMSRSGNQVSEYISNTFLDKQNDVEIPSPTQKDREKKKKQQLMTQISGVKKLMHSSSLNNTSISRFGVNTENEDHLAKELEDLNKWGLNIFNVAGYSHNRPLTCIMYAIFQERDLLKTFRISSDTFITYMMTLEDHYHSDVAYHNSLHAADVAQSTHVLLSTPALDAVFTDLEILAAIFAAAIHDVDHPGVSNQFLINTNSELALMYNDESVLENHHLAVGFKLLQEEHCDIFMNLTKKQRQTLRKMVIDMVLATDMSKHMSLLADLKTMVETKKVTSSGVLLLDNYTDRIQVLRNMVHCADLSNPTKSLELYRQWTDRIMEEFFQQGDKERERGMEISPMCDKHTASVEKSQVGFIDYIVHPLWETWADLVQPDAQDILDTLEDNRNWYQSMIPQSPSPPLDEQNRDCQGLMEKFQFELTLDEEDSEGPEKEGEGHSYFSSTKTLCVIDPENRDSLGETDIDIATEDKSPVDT

For `O=C(O)Cc1ccc2c(c1)CCN2c1nc(-c2ccc(Cl)s2)nc2c1CCC2` [Compound No. 1-13, 2-(1-(2-(5-Chlorothiophen-2-yl)-6,7-dihydro-5H-cyclopenta[d]-pyrimidin-4-yl)indolin-5-yl)acetic acid], the inhibition at 1 µM turned out to be 78% and the IC50 is less than 100 nM.

Regarding `O=C(O)Cc1ccc2c(c1)CCN2c1nc(-c2ccc(F)s2)nc2c1CCC2` [Compound No. 1-15, 2-(1-(2-(5-Fluorothiophen-2-yl)-6,7-dihydro-5H-cyclopenta[d]pyrimidin-4-yl)indolin-5-yl)acetic acid], the inhibition at 1 µM was found to be 100% and the half-maximal inhibitory concentration (IC50) is less than 100 nM. The like results for `N#Cc1ccc(-c2nc3c(c(N4CCc5cc(CC(=O)O)ccc54)n2)CCC3)s1` [Compound No. 1-16, 2-(1-(2-(5-Cyanothiophen-2-yl)-6,7-dihydro-5H-cyclopenta[d]pyrimidin-4-yl)indolin-5-yl)acetic acid] were, in that order, 95% and less than 100 nM. As to `O=C(O)Cc1ccc2c(c1)CCN2c1nc(-c2cncs2)nc2c1CCC2` [Compound No. 1-17, 2-(1-(2-(Thiazol-5-yl)-6,7-dihydro-5H-cyclopenta[d]pyrimidin-4-yl)indolin-5-yl)acetic acid], the inhibition at 1 µM was 83% and the IC50 lay in the range of 100 to 1000 nM.

On to `O=C(O)Cc1ccc2c(c1)CCN2c1nc(-c2cc(Cl)cs2)nc2c1CCC2` [Compound No. 1-18, 2-(1-(2-(4-Chlorothiophen-2-yl)-6,7-dihydro-5H-cyclopenta[d]pyrimidin-4-yl)indolin-5-yl)acetic acid], for which the inhibition at 1 µM was found to be 92% and the concentration for half-maximal inhibition (IC50) is less than 100 nM. The matching figures for `O=C(O)Cc1ccc2c(c1)CCN2c1nc(-c2csc(Cl)c2)nc2c1CCC2` [Compound No. 1-19, 2-(1-(2-(5-Chlorothiophen-3-yl)-6,7-dihydro-5H-cyclopenta[d]pyrimidin-4-yl)indolin-5-yl)acetic acid]: 85% and less than 100 nM. `O=C(O)Cc1ccc2c(c1)CCN2c1nc(-c2ccc(Cl)s2)nc2c1CSC2` [Compound No. 1-20, 2-(1-(2-(5-Chlorothiophen-2-yl)-5,7-dihydrothieno[3,4-d]pyrimidin-4-yl)indolin-5-yl)acetic acid]: the inhibition at 1 µM was found to be 92% and the IC50 was less than 100 nM. In the case of `O=C(O)Cc1ccc2c(c1)CCN2c1nc(-c2ccc(Cl)s2)nc2c1C[S+]([O-])C2` (stereo not drawn) [Compound No. 1-21, 2-(1-(2-(5-Chlor-thiophen-2-yl)-6-oxo-5,7-dihydro-thieno[3,4-d]pyrimidin-4-yl)-2,3-dihydro-1H-indol-5-yl)acetic acid], the “Inhibition at 1 μM test concentration [%]” value stood at 88%.

Take `O=C(O)Cc1ccc2c(c1)CCN2c1nc(-c2ccc(Cl)s2)nc2c1CS(=O)(=O)C2` [Compound No. 1-22, 2-(1-(2-(5-Chlor-thiophen-2-yl)-6,6-dioxo-5,7-dihydro-thieno[3,4-d]pyrimidin-4-yl)-2,3-dihydro-1H-indol-5-yl)acetic acid]: the “Inhibition at 1 μM test concentration [%]” value is 115%. In the case of `O=C(O)Cc1ccc2c(c1)CCN2c1nc(-c2ccc(F)s2)nc2c1CSC2` [Compound No. 1-23, 2-(1-(2-(5-Fluorothiophen-2-yl)-5,7-dihydrothieno[3,4-d]pyrimidin-4-yl)indolin-5-yl)acetic acid], the inhibition at 1 µM is 93% and the IC50 is less than 100 nM. With `O=C(O)Cc1ccc2c(c1)CCN2c1nc(-c2ccc(F)s2)nc2c1C[S+]([O-])C2` (stereo not drawn) [Compound No. 1-24, 2-(1-(2-(5-Fluorothiophen-2-yl)-6-oxido-5,7-dihydrothieno[3,4-d]pyrimidin-4-yl)indolin-5-yl)acetic acid], the inhibition at 1 µM turned out to be 111% and the IC50 is less than 100 nM. As for `O=C(O)Cc1ccc2c(c1)CCN2c1nc(-c2ccc(F)s2)nc2c1CS(=O)(=O)C2` [Compound No. 1-25, 2-(1-(2-(5-Fluoro-thiophen-2-yl)-6,6-dioxo-5,7-dihydro-thieno[3,4-d]pyrimidin-4-yl)-2,3-dihydro-1H-indol-5-yl)acetic acid], the inhibition at 1 µM is 103% and the IC50 is less than 100 nM. The like results for `COc1ccc(-c2nc3c(c(N4CCc5cc(CC(=O)O)ccc54)n2)CCCC3)cc1Cl` [Compound No. 1-39, 2-(1-(2-(3-Chloro-4-methoxyphenyl)-5,6,7,8-tetrahydroqiuinazolin-4-yl)indolin-5-yl)acetic acid] were, in that order, 63% and 100 to 1000 nM. The matching figures for `O=C(O)Cc1ccc2c(c1)CCN2c1nc(-c2ccc(Cl)s2)nc2c1CCCC2` [Compound No. 1-50, 2-(1-(2-(5-Chlorothiophen-2-yl)-5,6,7,8-tetrahydroquinazolin-4-yl)indolin-5-yl)acetic acid]: 76% and 100 to 1000 nM. As for `COc1ccc(-c2nc3c(c(-n4ncc5cc(CC(=O)O)ccc54)n2)CCC3)cc1Cl` [Compound No. 1-59, 2-(1-(2-(3-Chloro-4-methoxyphenyl)-6,7-dihydro-5H-cyclopenta[d]-pyrimidin-4-yl)-1H-indazol-5-yl)acetic acid], the inhibition at 1 µM was determined as 38%. For the compound `COc1ccc(-c2nc3c(c(-n4ncc5cc(CC(=O)O)ccc54)n2)CCC3)cc1F` [Compound No. 1-60, 2-(1-(2-(3-Fluoro-4-methoxyphenyl)-6,7-dihydro-5H-cyclopenta[d]-pyrimidin-4-yl)-1H-indazol-5-yl)acetic acid], the inhibition at 1 µM came to 67% and the IC50 was in the range of 100 to 1000 nM. The like results for `O=C(O)Cc1ccc2c(cnn2-c2nc(-c3ccc(Cl)s3)nc3c2CCC3)c1` [Compound No. 1-61, 2-(1-(2-(5-Chlorothiophen-2-yl)-6,7-dihydro-5H-cyclopenta[d]-pyrimidin-4-yl)-1H-indazol-5-yl)acetic acid] were, in that order, 82% and 100 to 1000 nM. With `O=C(O)Cc1ccc2c(c1)CC(=O)N2c1nc(-c2ccc(Cl)s2)nc2c1CCC2` [Compound No. 1-64, 2-(1-(2-(5-Chlorothiophen-2-yl)-6,7-dihydro-5H-cyclopenta[d]-pyrimidin-4-yl)-2-oxoindolin-5-yl)acetic acid], the inhibition at 1 µM turned out to be 28%. The same measure, in the same setting: the same measure for `O=C(O)Cc1ccc2c(c1)CC(=O)N2c1nc(-c2ccc(F)s2)nc2c1CCC2` [Compound No. 1-65, 2-(1-(2-(5-Fluorothiophen-2-yl)-6,7-dihydro-5H-cyclopenta[d]-pyrimidin-4-yl)-2-oxoindolin-5-yl)acetic acid]: 34%. On to `COc1ccc(-c2nc3c(c(N4C(=O)Cc5cc(CC(=O)O)ccc54)n2)CCC3)cc1Cl` [Compound No. 1-66, 2-(1-(2-(3-Chloro-4-methoxyphenyl)-6,7-dihydro-5H-cyclopenta[d]-pyrimidin-4-yl)-2-oxoindolin-5-yl)acetic acid], for which the inhibition at 1 µM was 61% and the IC50 fell in the range of 100 to 1000 nM. Turning to `O=C(O)c1ccc2c(c1)oc(=O)n2-c1nc(-c2ccc(Cl)s2)nc2c1CCC2` [Compound No. 1-68, 3-(2-(5-Chlorothiophen-2-yl)-6,7-dihydro-5H-cyclopenta[d]pyrimidin-4-yl)-2-oxo-2,3-dihydrobenzo[d]oxazole-6-carboxylic acid], the inhibition at 1 µM was 34%. For the compound `O=C(O)c1ccc2c(c1)CC(=O)N2c1nc(-c2ccc(Cl)s2)nc2c1CCC2` [Compound No. 1-69, 1-(2-(5-Chlorothiophen-2-yl)-6,7-dihydro-5H-cyclopenta[d]pyrimidin-4-yl)-2-oxoindoline-5-carboxylic acid], the inhibition at 1 µM was determined as 61% and the IC50 is 100 to 1000 nM. The matching figures for `O=C(O)c1ccc2c(ccn2-c2nc(-c3ccc(Cl)s3)nc3c2CCC3)c1` [Compound No. 1-70, 1-(2-(5-Chlorothiophen-2-yl)-6,7-dihydro-5H-cyclopenta[d]pyrimidin-4-yl)-1H-indole-5-carboxylic acid]: 61% and 100 to 1000 nM.

For the compound `O=C(O)Cc1ccc2c(ccn2-c2nc(-c3ccc(Cl)s3)nc3c2CCC3)c1` [Compound No. 1-71, 2-(1-(2-(5-Chlorothiophen-2-yl)-6,7-dihydro-5H-cyclopenta[d]pyrimidin-4-yl)-1H-indol-5-yl)acetic acid], the inhibition at 1 µM was determined as 64% and the IC50 was 100 to 1000 nM. In the case of `O=C(O)c1ccc2c(c1)CCN2c1nc(-c2ccc(Cl)s2)nc2c1CCC2` [Compound No. 1-72, 1-(2-(5-Chlorothiophen-2-yl)-6,7-dihydro-5H-cyclopenta[d]pyrimidin-4-yl)indoline-5-carboxylic acid], the inhibition at 1 µM was 59% and the IC50 is 100 to 1000 nM.

Take `O=C(O)c1ccc2c(cnn2-c2nc(-c3ccc(Cl)s3)nc3c2CCC3)c1` [Compound No. 1-73, 1-(2-(5-Chlorothiophen-2-yl)-6,7-dihydro-5H-cyclopenta[d]pyrimidin-4-yl)-1H-indazole-5-carboxylic acid]: the inhibition at 1 µM stood at 80% and the IC50 is 100 to 1000 nM. The like results for `NC(=O)c1ccc(-c2nc3c(c(N4CCc5cc(CC(=O)O)ccc54)n2)CCC3)s1` [Compound No. 1-75, 2-(1-(2-(5-Carbamoylthiophen-2-yl)-6,7-dihydro-5H-cyclopenta[d]pyrimidin-4-yl)indolin-5-yl)acetic acid] were, in that order, 101% and less than 100 nM.

In the case of `COC(=O)COc1ccc2c(c1)N(c1nc(-c3ccc(Cl)s3)nc3c1CS(=O)(=O)C3)CC2` [Compound No. 1-77, Methyl 2-((1-(2-(5-chlorothiophen-2-yl)-6,6-dioxido-5,7-dihydrothieno[3,4-d]pyrimidin-4-yl)indolin-6-yl)oxy)acetate], the inhibition at 1 µM came out at 62% and the IC50 fell in the range of 100 to 1000 nM.

As to `COC(=O)Cc1ccc2c(c1)CCN2c1nc(-c2ccc(Cl)s2)nc2c1CS(=O)(=O)C2` [Compound No. 1-78, Methyl 2-(1-(2-(5-chlorothiophen-2-yl)-6,6-dioxido-5,7-dihydrothieno[3,4-d]pyrimidin-4-yl)indolin-5-yl)acetate], the inhibition at 1 µM was determined as 25%.
